Data taken from PubChem BioAssay AID248 (DTP/NCI, 2004).
Values joined by “and” are separate entries in the source; they are usually repeats but may differ in a detail not shown here. Identical values can stand only once. Inconclusive results and toxic doses are left out. Cut-off read from the data, not from the text of the source: active = T/C of 150% or more; inactive = T/C below 125%.

Tested on: L1210 leukemia ip in BDF1 mice, survival T/C
Assay: NCI In Vivo Anticancer Drug Screen. Data for tumor model L1210 Leukemia (intraperitoneal) in B6D2F1 (BDF1) mice
Settings: endpoint: mean survival time, higher = longer survival
Procedure, shortened: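 Ratio derived from survival: compound-dosed mice over vehicle-dosed mice, all bearing a transplantable tumor.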

[1] = dose: 100.0 mg/kg/injection, schedule: Q01DX009 (ip), vehicle: Klucel (hydroxypropylcellulose) (HPC)
[2] = dose: 100.0 mg/kg/injection, schedule: Q04DX003 (ip), vehicle: Klucel (hydroxypropylcellulose) (HPC)
[3] = dose: 200.0 mg/kg/injection, schedule: Q01DX009 (ip), vehicle: Klucel (hydroxypropylcellulose) (HPC)
[4] = dose: 200.0 mg/kg/injection, schedule: Q04DX003 (ip), vehicle: Klucel (hydroxypropylcellulose) (HPC)
[5] = dose: 400.0 mg/kg/injection, schedule: Q01DX009 (ip), vehicle: Klucel (hydroxypropylcellulose) (HPC)
[6] = dose: 400.0 mg/kg/injection, schedule: Q04DX003 (ip), vehicle: Klucel (hydroxypropylcellulose) (HPC)
[7] = dose: 100.0 mg/kg/injection, schedule: Q01DX001 (ip), vehicle: saline
[8] = dose: 100.0 mg/kg/injection, schedule: Q01DX009 (ip), vehicle: saline with Tween-80
[9] = dose: 200.0 mg/kg/injection, schedule: Q01DX001 (ip), vehicle: saline
[10] = dose: 200.0 mg/kg/injection, schedule: Q01DX009 (ip), vehicle: saline with Tween-80
[11] = dose: 400.0 mg/kg/injection, schedule: Q01DX001 (ip), vehicle: saline
[12] = dose: 400.0 mg/kg/injection, schedule: Q01DX009 (ip), vehicle: saline with Tween-80
[13] = dose: 100.0 mg/kg/injection, schedule: Q01DX001 (ip), vehicle: carboxymethylcellulose (CMC)
[14] = dose: 200.0 mg/kg/injection, schedule: Q01DX001 (ip), vehicle: carboxymethylcellulose (CMC)
[15] = dose: 400.0 mg/kg/injection, schedule: Q01DX001 (ip), vehicle: carboxymethylcellulose (CMC)
[16] = dose: 100.0 mg/kg/injection, schedule: Q01DX001 (ip), vehicle: saline with Tween-80
[17] = dose: 200.0 mg/kg/injection, schedule: Q01DX001 (ip), vehicle: saline with Tween-80
[18] = dose: 400.0 mg/kg/injection, schedule: Q01DX001 (ip), vehicle: saline with Tween-80
[19] = dose: 100.0 mg/kg/injection, schedule: Q04DX003 (ip), vehicle: saline with Tween-80
[20] = dose: 200.0 mg/kg/injection, schedule: Q04DX003 (ip), vehicle: saline with Tween-80

Measured: T/C

COc1ccc(Cl)cc1NC(=O)Nc1ccc(Cl)cc1Cl
inactive: [1] 94 % of control | [2] 111 % of control | [3] 96 % of control | [4] 91 % of control | [5] 94 % of control | [6] 94 % of control

Brc1cc(Br)cc(Br)c1
inactive: [2] 92 % of control and 98 % of control | [4] 101 % of control and 105 % of control | [6] 98 % of control and 103 % of control

O=S(=O)(Cl)c1cccc2cc3ccccc3cc12
inactive: [7] 92 % of control | [8] 107 % of control | [9] 100 % of control | [10] 102 % of control | [11] 98 % of control | [12] 103 % of control

CC(C)CCS(=O)c1ccccc1 (stereo not given)
inactive: dose: 75.0 mg/kg/injection, schedule: Q01DX001 (ip), vehicle: acetone 91 % of control | dose: 75.0 mg/kg/injection, schedule: Q04DX003 (ip), vehicle: acetone 100 % of control | dose: 150.0 mg/kg/injection, schedule: Q01DX001 (ip), vehicle: acetone 100 % of control | dose: 150.0 mg/kg/injection, schedule: Q04DX003 (ip), vehicle: acetone 97 % of control | dose: 300.0 mg/kg/injection, schedule: Q01DX001 (ip), vehicle: acetone 98 % of control | dose: 300.0 mg/kg/injection, schedule: Q04DX003 (ip), vehicle: acetone 89 % of control

Brc1ccc(/C=C2\C=Cc3ccccc32)cc1
inactive: [13] 98 % of control | [14] 93 % of control | [15] 93 % of control

COc1ccc(C2C3CCC(C3)C2C(C)=O)cc1 (stereo not given)
inactive: [16] 101 % of control | [17] 90 % of control | [18] 92 % of control

S=C(Nc1ccccc1)N1CCCCC1
inactive: dose: 50.0 mg/kg/injection, schedule: Q01DX001 (ip), vehicle: carboxymethylcellulose (CMC) 97 % of control | [13] 100 % of control | [14] 97 % of control | [15] 103 % of control

O=C(CCCl)Oc1c(Cl)c(Cl)c(Cl)c(Cl)c1Cl
inactive: dose: 50.0 mg/kg/injection, schedule: Q01DX001 (ip), vehicle: saline with Tween-80 98 % of control | dose: 50.0 mg/kg/injection, schedule: Q01DX009 (ip), vehicle: saline with Tween-80 111 % of control | dose: 50.0 mg/kg/injection, schedule: Q04DX003 (ip), vehicle: saline with Tween-80 95 % of control | [16] 96 % of control | [8] 103 % of control | [19] 97 % of control | [17] 100 % of control | [10] 100 % of control | [20] 93 % of control

CC(C)CC[NH-].CC(C)CC[NH-].[Cl][Pt+2][Cl]
inactive: dose: 50.0 mg/kg/injection, schedule: Q04DX003 (ip), vehicle: saline 100 % of control and 105 % of control | dose: 100.0 mg/kg/injection, schedule: Q04DX003 (ip), vehicle: saline 92 % of control and 105 % of control | dose: 200.0 mg/kg/injection, schedule: Q04DX003 (ip), vehicle: saline 103 % of control and 117 % of control | dose: 400.0 mg/kg/injection, schedule: Q04DX003 (ip), vehicle: saline 97 % of control and 88 % of control

O=C(Nc1ccc(S(=O)(=O)c2ccc(NC(=O)C(F)(F)Cl)cc2)cc1)C(F)(F)Cl
inactive: [13] 104 % of control | [14] 101 % of control | [15] 103 % of control

CN(CCN(C)CP(c1ccccc1)c1ccccc1)CP(c1ccccc1)c1ccccc1
inactive: dose: 100.0 mg/kg/injection, schedule: Q04DX002 (sc), vehicle: olive oil, sesame oil, peanut oil 96 % of control | dose: 200.0 mg/kg/injection, schedule: Q04DX002 (sc), vehicle: olive oil, sesame oil, peanut oil 104 % of control | dose: 400.0 mg/kg/injection, schedule: Q04DX002 (sc), vehicle: olive oil, sesame oil, peanut oil 110 % of control

CCOC(=O)C(=O)c1ccc[nH]1
inactive: [16] 114 % of control | [19] 94 % of control | [17] 115 % of control | [20] 101 % of control | [18] 111 % of control | dose: 400.0 mg/kg/injection, schedule: Q04DX003 (ip), vehicle: saline with Tween-80 92 % of control

COc1ccc(COc2ccc([N+](=O)[O-])cc2)cc1
inactive: dose: 50.0 mg/kg/injection, schedule: Q04DX002 (ip), vehicle: saline with Tween-80 101 % of control | dose: 100.0 mg/kg/injection, schedule: Q04DX002 (ip), vehicle: saline with Tween-80 104 % of control | dose: 200.0 mg/kg/injection, schedule: Q04DX002 (ip), vehicle: saline with Tween-80 97 % of control

CCCCC(=O)Nc1cccc(O)c1
inactive: [8] 90 % of control | [10] 93 % of control | [12] 107 % of control

NC(=O)N/N=C1\CCCC(CCC(=O)O)C1 (stereo not given)
inactive: dose: 75.0 mg/kg/injection, schedule: Q01DX009 (ip), vehicle: other 101 % of control | [7] 89 % of control | dose: 150.0 mg/kg/injection, schedule: Q01DX009 (ip), vehicle: other 93 % of control | [9] 108 % of control | dose: 300.0 mg/kg/injection, schedule: Q01DX009 (ip), vehicle: other 94 % of control | [11] 100 % of control

O=C1CC(C(=O)O)C(C(=O)O)C1 (stereo not given)
inactive: [7] 91 % of control | [9] 91 % of control

CCCC1OC(=O)C(C)O1 (stereo not given)
inactive: [1] 94 % of control | [2] 105 % of control | [3] 97 % of control | [4] 100 % of control | [6] 103 % of control

Cn1nc(NC(=O)C(F)(F)F)c2ncc(-c3ccccc3)nc21
inactive: [8] 96 % of control | [10] 96 % of control

CCN(CC)CC(C)(N)c1c2ccccc2nc2c1ccc1ccccc12 (stereo not given)
inactive: dose: 50.0 mg/kg/injection, schedule: Q01DX009 (ip), vehicle: other 101 % of control | dose: 100.0 mg/kg/injection, schedule: Q01DX009 (ip), vehicle: other 111 % of control | dose: 200.0 mg/kg/injection, schedule: Q01DX009 (ip), vehicle: other 119 % of control

COC1(OC)C2(Cl)CCC1(Cl)C(Cl)=C2Cl
inactive: dose: 100.0 mg/kg/injection, schedule: Q01DX001 (ip), vehicle: other 98 % of control | [16] 100 % of control | [1] 100 % of control | [2] 102 % of control | dose: 200.0 mg/kg/injection, schedule: Q01DX001 (ip), vehicle: other 98 % of control | [17] 100 % of control | [3] 103 % of control | [4] 94 % of control | dose: 400.0 mg/kg/injection, schedule: Q01DX001 (ip), vehicle: other 92 % of control | [18] 97 % of control | [5] 90 % of control | [6] 96 % of control

Cc1cc(C)c(NC(=O)c2ccccc2F)cc1C
inactive: [1] 101 % of control | [3] 100 % of control | [5] 97 % of control
